For 5 compounds, IC50 and viability, T/C results are on record in PubChem BioAssay AID2060338 (Molecular Pharmacology Branch, DTP, NCI, 2025).

Several values for one entry are separate records, joined by “and”; a condition that tells them apart may be missing. Equal entries are not always repeated. Bounds are passed on as bounds.

By IC50 is commonly meant the concentration that gives 50% inhibition. What is called viability, T/C is the ratio of treated to control.

The assay deals with 556581-035-R-J1-PDC spheroids with HUVEC/MSC, viability. As to the kind of experiment: Anticancer human tumor 556581-035-R-J1-PDC patient-derived ovarian carcinoma cell line growth inhibition [IpAb]. The settings on record: for viability, T/C: stronger effect = lower value. The procedure, abridged: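 Combinations with ipatasertib or abemaciclib were tested on tumour spheroids holding HUVEC (25%) and MSC (15%) alongside 60% malignant cells. Top concentration was at or near clinical Cmax (10 microM if undefined), descending in half-log steps.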

[1] abbreviates: curve of first compound, second compound 0.1 µM.
[2] abbreviates: curve of first compound, second compound 0.316 µM.
Where [3] appears, read: curve of first compound, second compound 1 µM.
[4] abbreviates: curve of first compound, second compound 3.16 µM.
Where [5] appears, read: curve of first compound, second compound 10 µM.
[6] abbreviates: second compound 0.1 µM, first compound 0.0316 µM.
The mark [7] stands for this setting: second compound 0.1 µM, first compound 0.1 µM.
[8] abbreviates: second compound 0.316 µM, first compound 0.0316 µM.
[9] abbreviates: second compound 0.316 µM, first compound 0.1 µM.
[10] abbreviates: second compound 1 µM, first compound 0.0316 µM.
The mark [11] stands for this setting: second compound 1 µM, first compound 0.1 µM.
The mark [12] stands for this setting: second compound 3.16 µM, first compound 0.0316 µM.
[13] abbreviates: second compound 3.16 µM, first compound 0.1 µM.
Where [14] appears, read: second compound 10 µM, first compound 0.0316 µM.
[15] abbreviates: second compound 10 µM, first compound 0.1 µM.
Setting [16] is: second compound 0.1 µM, first compound 0.316 µM.
Where [17] appears, read: second compound 0.1 µM, first compound 1 µM.
Setting [18] is: second compound 0.1 µM, first compound 3.16 µM.
[19] abbreviates: second compound 0.1 µM, first compound 10 µM.
[20] abbreviates: second compound 0.316 µM, first compound 0.316 µM.
The mark [21] stands for this setting: second compound 0.316 µM, first compound 1 µM.
[22] abbreviates: second compound 0.316 µM, first compound 3.16 µM.
Setting [23] is: second compound 0.316 µM, first compound 10 µM.
The mark [24] stands for this setting: second compound 1 µM, first compound 0.316 µM.
Setting [25] is: second compound 1 µM, first compound 1 µM.
The mark [26] stands for this setting: second compound 1 µM, first compound 3.16 µM.
The mark [27] stands for this setting: second compound 1 µM, first compound 10 µM.
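Note: spheroids exposed to compounds for 7 days before readout.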

Consider `CC(C)n1nc(-c2ccc3oc(N)nc3c2)c2c(N)ncnc21` + CC(C)NCC(C(=O)N1CCN(c2ncnc3c2C(C)CC3O)CC1)c1ccc(Cl)cc1, for which the half-inhibitory concentration (IC50) was 6.46 nM under setting [1]; 6 nM under setting [2]; 3.58 nM under setting [3]; 1.47 nM under setting [4]; less than 0.316 nM under setting [5]. For the same compound, the viability, T/C by setting is: (second compound 0.1 µM, first compound 0.000316 µM) 87.8%; (second compound 0.1 µM, first compound 0.001 µM) 68.8%; (second compound 0.1 µM, first compound 0.00316 µM) 60.1%; (second compound 0.1 µM, first compound 0.01 µM) 47.6%; under setting [6], 29.3%; under setting [7], 24.7%. Besides, the viability, T/C was 69.5% (second compound 0.316 µM, first compound 0.000316 µM); 65.1% (second compound 0.316 µM, first compound 0.001 µM); 58% (second compound 0.316 µM, first compound 0.00316 µM); 40.9% (second compound 0.316 µM, first compound 0.01 µM); 36.6% under setting [8]; 21.3% under setting [9]. The viability, T/C is 58.6% (second compound 1 µM, first compound 0.000316 µM); 67.1% (second compound 1 µM, first compound 0.001 µM); 50.4% (second compound 1 µM, first compound 0.00316 µM); 34% (second compound 1 µM, first compound 0.01 µM); 28.6% under setting [10]; 25.2% under setting [11]. In addition, the viability, T/C is 63.4% (second compound 3.16 µM, first compound 0.000316 µM); 52.4% (second compound 3.16 µM, first compound 0.001 µM); 44.1% (second compound 3.16 µM, first compound 0.00316 µM); 34.1% (second compound 3.16 µM, first compound 0.01 µM); 27.5% under setting [12]; 18.5% under setting [13]. Moreover, the viability, T/C (second compound 10 µM, first compound 0.000316 µM) was 48%; the viability, T/C (second compound 10 µM, first compound 0.001 µM) was 44%; the viability, T/C (second compound 10 µM, first compound 0.00316 µM) was 36.8%; the viability, T/C (second compound 10 µM, first compound 0.01 µM) was 25.7%; the viability, T/C under setting [14] was 17.1%; the viability, T/C under setting [15] is 16.4%.

In the case of `Cn1ncc(Cl)c1-c1cc(C(=O)NC(CN)Cc2cccc(F)c2)sc1Cl` (centres undefined) + CC(C)NCC(C(=O)N1CCN(c2ncnc3c2C(C)CC3O)CC1)c1ccc(Cl)cc1, the IC50 reads like this: under setting [1], 1860 nM; under setting [2], 2390 nM; under setting [3], 1900 nM; under setting [4], 1310 nM; under setting [5], 1190 nM. The viability, T/C was 84% under setting [6]; 81.2% under setting [7]; 68.5% under setting [16]; 63.4% under setting [17]; 40.9% under setting [18]; 0.2% under setting [19]. Moreover, the viability, T/C is, setting by setting: under setting [8], 37.8%; under setting [9], 79.6%; under setting [20], 67.2%; under setting [21], 56.8%; under setting [22], 47.3%; under setting [23], 0.21%. Also, the viability, T/C is 70.2% under setting [10]; 67.2% under setting [11]; 67.6% under setting [24]; 55.3% under setting [25]; 45.1% under setting [26]; 0.18% under setting [27]. For the same compound, the viability, T/C reads like this: under setting [12], 55.3%; under setting [13], 74.6%; (second compound 3.16 µM, first compound 0.316 µM) 54.4%; (second compound 3.16 µM, first compound 1 µM) 54.2%; (second compound 3.16 µM, first compound 3.16 µM) 37.8%; (second compound 3.16 µM, first compound 10 µM) 1.42%. The viability, T/C reads like this: under setting [14], 51.8%; under setting [15], 55.7%; (second compound 10 µM, first compound 0.316 µM) 51.5%; (second compound 10 µM, first compound 1 µM) 53.4%; (second compound 10 µM, first compound 3.16 µM) 32.5%; (second compound 10 µM, first compound 10 µM) 4.77%.

With `C=CC(=O)N1CCN(c2nc(=O)n(-c3c(C)ccnc3C(C)C)c3nc(-c4c(O)cccc4F)c(F)cc23)C(C)C1` (centres undefined), the viability, T/C is 107% and 97.3% (compound 0.0316 µM); 97.5% and 113% (compound 0.1 µM); 113% and 118% (compound 0.316 µM); 106% and 105% (compound 1 µM); 102% and 126% (compound 3.16 µM); 31.9% and 31.5% (compound 10 µM). For the same compound, the IC50 (curve of compound) is 7440 nM and 7680 nM.

For the compound `Cn1cnc2c(F)c(Nc3ccc(Br)cc3Cl)c(C(=O)NOCCO)cc21`, the viability, T/C is 94.9% and 121% (compound 0.00949 µM); 95% and 99.7% (compound 0.03 µM); 92.9% and 109% (compound 0.0949 µM); 74.6% and 91.1% (compound 0.3 µM); 45.2% and 43% (compound 0.949 µM); 14.4% and 14% (compound 3 µM). The 50% inhibitory concentration (IC50) (curve of compound) was 779 nM and 805 nM.

Turning to `CCCS(=O)(=O)Nc1ccc(F)c(C(=O)c2c[nH]c3ncc(-c4ccc(Cl)cc4)cc23)c1F` + CCN1CCN(Cc2ccc(Nc3ncc(F)c(-c4cc(F)c5nc(C)n(C(C)C)c5c4)n3)nc2)CC1, the half-inhibitory concentration (IC50) is greater than 10000 nM (curve of first compound, second compound 0.01 µM); greater than 10000 nM (curve of first compound, second compound 0.0316 µM); greater than 10000 nM under setting [1]; greater than 10000 nM under setting [2]; greater than 10000 nM under setting [3]. Moreover, the viability, T/C by setting is: (second compound 0.01 µM, first compound 0.0316 µM) 114%; (second compound 0.01 µM, first compound 0.1 µM) 106%; (second compound 0.01 µM, first compound 0.316 µM) 123%; (second compound 0.01 µM, first compound 1 µM) 116%; (second compound 0.01 µM, first compound 3.16 µM) 129%; (second compound 0.01 µM, first compound 10 µM) 71.9%. For the same compound, the viability, T/C runs as follows: (second compound 0.0316 µM, first compound 0.0316 µM) 99%; (second compound 0.0316 µM, first compound 0.1 µM) 97.2%; (second compound 0.0316 µM, first compound 0.316 µM) 109%; (second compound 0.0316 µM, first compound 1 µM) 104%; (second compound 0.0316 µM, first compound 3.16 µM) 110%; (second compound 0.0316 µM, first compound 10 µM) 60.9%. In addition, the viability, T/C under setting [6] is 128%; the viability, T/C under setting [7] was 113%; the viability, T/C under setting [16] was 123%; the viability, T/C under setting [17] was 104%; the viability, T/C under setting [18] is 100%; the viability, T/C under setting [19] was 61%. The viability, T/C under setting [8] is 105%; the viability, T/C under setting [9] was 98.4%; the viability, T/C under setting [20] is 99.1%; the viability, T/C under setting [21] is 93.9%; the viability, T/C under setting [22] is 77.6%; the viability, T/C under setting [23] is 57.6%. Moreover, the viability, T/C is 67.7% under setting [10]; 54.9% under setting [11]; 73.1% under setting [24]; 61% under setting [25]; 57.2% under setting [26]; 59.8% under setting [27].
